Read-outs that look alike come from different tables or passages of the source.
Tests used:
[1] = test system: HiB5 cells; details: for O.D. %: control = 100
Description: Since HiB5 cells derived from white rat embryonic hippocampus were prepared by retroviral infection of temperature sensitive SV40 large T antigen, they divided at […], but the cell division stopped at 39° C. (body temperature of rat). […] Cell culture medium was prepared by adding a mixture of 10% FBS (fetal bovine serum), penicillin/streptomycin, glutamine and sodium pyruvate (0.11 g/L) to DMEM. On differentiating at 39° C., another cell culture medium was prepared by adding pyruvate to a serum-free medium (N2, containing DMEM/F12, insulin, transferrin, Putreseine and BSA; Botten Stein & Sato., 1979). PC12 cells and SH-SY5Y cells were cultured in DMEM supplemented with 10% FBS. In order to differentiate the cells, NGF or retinoic acid was added to a serum-free medium.
Cell injuries under condition of serum deprivation-induced stress and oxidative stress were measured by MTT assay. For MTT assay, Cells were seeded into N2 medium in an amount of 7.5×10^3 cells, and then a neurotoxin or a nerve growth factor was added thereto to differentiate the cells and then 0.1 volume of 4 mg/ml MTT was further added. The mixture was stored at 37° C. for 3-4 hours. After 100 μl of solubilization buffer was added to the mixture and then stored for 24 hours, O.D. values were measured by ELISA assay.
HiB5 cell line used in this experiment was prepared by infecting primary cultured cells of temperature sensitive SV40 large T antigen in rat embryonic hippocampus (embryonic day 16) using retroviral vectors. The HiB5 cell line was divided at the permissive temperature (32° C.), but the cell division stopped at the non-permissive temperature (body temperature of rat: 39° C.). A small number of GABAegic neurons differentiated in the rat embryonic hippocampus (embryonic day 16), and glutamatergic pyramidal cell precursors still divided, some of which penetrated into dentate gyrus regions through dentate migration pathways in embryonic day 18 to differentiate into glutamatergic granule cells (Altman J., Bayer. S. A. (1990a) Prolonged sojourn of developing pyramidal cells in the intermediate zone of the hippocampus and their settling in the stratum pyramidale. J Comp Neurol. 301, 343-64.; Altman J., Das G. D. (1965) Post-natal origin of microneurones in the rat brain, Nature. 28, 953-956.). When cells stop their cell-division and start to differentiate in vivo, apoptosis occurs.
In order to evaluate the protective effect of berberine against apoptosis and the effect of increasing cell survival, HiB5 cells were cultured under conditions for initiation of differentiation. At this time, the culture was treated with berberine at various concentrations (50 ng/ml˜6 μg/ml). The protective effect of berberine against apoptosis was measured by MTT assay. A positive control group was treated with bFGF to block apoptosis, increase cell survival and induce the differentiation into nerve cells.
Since HiB5 neuronal stem cells undergo cell death during the differentiation, the cells were considered as a negative control group. The percentage of O.D. values is determined for the groups treated with bFGF and berberine, respectively.

[2] = test system: sciatic nerves; assay: Regeneration of crushed sciatic nerves (axons, myelin sheaths); assay type: in vivo, Sprague-Dawley white rat; details: for number of axons longer than 300 μm / number of myelin sheaths longer than 200 μm: berberine intraperitoneal
Description: After a Sprague-Dawley white rat (male, weighing about 200 g) was anesthetized with pentobarbital (50 mg/kg), the left sciatic nerve was exposed at the sciatic notch. Subsequently, all nerve fibers except the artery in the sciatic nerve were cut, or both sides of nerve fibers were tied using #9 blood vessel suture, and then the center of the nerve fibers were cut using iridectomy scissors. In a crush model, nerve fibers were thoroughly crushed twice using a crush clip. After nerve fibers were injured, proximal stumps and distal stumps were obtained over various time intervals (6 hours, 1 day, 3 day, 7 day, 14 day, 21 day and 28 day), respectively, before testing. For comparison, the right sciatic nerve was used as a control group.
After a white rat was anesthetized, its sciatic nerves were exposed and crushed. PBS or berberine was intraperitoneally injected into the rat. 1 week, 2 weeks and 4 weeks after suturing, nerve regeneration was observed. The rat was perfused and then sciatic nerves were obtained from the distal stump. After the obtained sciatic nerves were cryosected to a thickness of 7-10 μm, cryosected sciatic nerves were double-stained using beta-tubulin isotypeIII (cy3, red), which is an axon marker, and MBP ([…], cy2, green) antibody, which is a differentiation (myelin) marker of Schwann cells. It was observed under a confocal microscope that axons (see, Table 11) were longer than 300 μm and myelin sheaths (see, Table 12) were longer than 200 μm (see, FIGS. 13 to 15, 19a and 19b).

COc1ccc2cc3[n+](cc2c1OC)CCc1cc2c(cc1-3)OCO2 [Berberine, 7,8,13,13a-tetradihydro-9,10-dimethoxy-2,3-(methylenedioxy) berbinium]
O.D. % ([1]; 50 ng): 99% | O.D. % ([1]; 100 ng): 103% | O.D. % ([1]; 250 ng): 111% | O.D. % ([1]; 500 ng): 140% | O.D. % ([1]; 700 ng): 154% | O.D. % ([1]; 1 μg): 153% | O.D. % ([1]; 1.5 μg): 162% | O.D. % ([1]; 2 μg): 173% | O.D. % ([1]; 2.5 μg): 185% | O.D. % ([1]; 3 μg): 190% | O.D. % ([1]; 4 μg): 189% | O.D. % ([1]; 5 μg): 191% | O.D. % ([1]; 6 μg): 190% | cell survival rate / protective effect against apoptosis, increase over control ([1]; HiB5 under differentiation conditions, MTT): about two times | cell survival rate ([1]; berberine 250˜500 ng/ml): somewhat increased | cytotoxicity ([1]; berberine up to 6 μg/ml): no cytotoxicity | number of myelin sheaths longer than 200 μm, increase ([2]; 1 week): doubled | effect on axonal growth and the regeneration of myelin sheaths ([2]; 1 week after operation): not great | number of axons longer than 300 μm ([2]; 1 week, PBS = 14.5): 24.6 | number of myelin sheaths longer than 200 μm ([2]; 1 week, PBS = 16.5): 35 | number of axons longer than 300 μm ([2]; 2 weeks, PBS = 20.5): 32.3 | number of myelin sheaths longer than 200 μm ([2]; 2 weeks, PBS = 43): 88.6 | number of axons (neurites) longer than 300 μm, increase ([2]; 4 weeks): doubled | number of myelin sheaths longer than 200 μm, increase ([2]; 4 weeks): 3 times

Source: patent US20040097534A1, “Composition for the protection and regeneration of nerve cells containing berberine derivatives” (EUGENBIO INC., priority 2001, published 2004)
